From patent US7838122B2, “Hydrazide compounds with angiogenic activity” (Rutgers, the State University of New Jersey, priority 2003, dated 2010)

How the values were obtained:
[1] = Scaffold degradation study in SBF at 37° C. (HPLC, TGA, gravimetry)
Method: To determine degradation products of porous scaffolds (compositions used: 100/80, 50/40 and 25/20), hydrogel disks of various compositions samples were incubated at 37° C. in SBF at a constant weight to volume ratio of 5 mg/mL, maintaining a constant surface area to volume ratio. Over a one-week period, aliquots were removed and analyzed by HPLC. Buffer solutions were changed every two weeks to maintain sink conditions. Samples were analyzed over a 6-month period for degradation products in the buffer by HPLC, for water uptake by TGA, and mass loss by gravimetry. Aliquots of the degradation media were analyzed by HPLC. The HPLC system consisted of a reversed-phase (C18) column (Perkin-Elmer, Norwalk, Calif.), an LC pump (Model 410; Perkin-Elmer), a UV array detector at 220 nm (Model 235 Perkin-Elmer), an autoinjector (Model ISS-100; Perkin-Elmer), and a computerized data station (Turbochrom; Perking Elmer). A gradient system of water:acetonitrile was used as an eluent to capture each degradation product. Degradation was monitored using DT and DTE standards, and quantitation of degradation products was determined from the area under the signal peaks in the chromatogram after correlating to the standards. […] Mass loss was calculated as the % ratio of weight lost over initial weight. […]

[2] = system: Human aortic endothelial cells (HAEC); assay: In vitro endothelial cell migration assay (transwell microchemotaxis chamber); assay type: cell-based
Method: Endothelial cells were known to respond to angiogenic factors which cause motility and mitosis, and ultimately the release of growth factors from the cells. Human aortic endothelial cells (HAEC) were cultured at passage 8 and maintained and fed with MCDB 131 media with EGM-2 (Clonetics) until the day of the experiment. Cultures were maintained at 37° C., 5% CO2 and 100% humidity. Comparisons were made of PEG-di-DT Hydrazide activity versus basic FGF-β. The PEG-di-DT hydrazide and basic FGF-β were dissolved in MCDB 131 media. Basic FGF-β was used as a positive control due to its well documented angiogenic activity and extensive testing. Dose-response curves were obtained for PEG-di-DT Hydrazide and basic FGF-β. PEG-dihydrazide, DT monomer, and PEG (Mw=2000), were prepared in MCDB 131 media according to Table 2, and were also tested. Migration assays were performed in a 24-well microchemotaxis chamber (Co-Star) containing transwells of untreated polycarbonate membranes with 8 μm pores. Both the transwells and well bottoms were coated overnight with a 10 μg/mL fibronectin solution (Calbiochem). HAE cells were harvested and resuspended at a concentration of 4.5×10^5 cells/0.1 mL in the corresponding medium. Media was also tested to determine baseline chemotaxis. The bottom wells were filled with 500 μL of test solution, and the transwells were seeded with […] and incubated for 6 hours at 37° C. The cells that migrated through the membrane were quantitated by counting the whole area of the filter using a grid and a (Olympus) microscope at 40× or 20× magnification.

[3] = system: Rat lung fibroblasts (RLF-6); assay: Cytotoxicity, CellTiter96 Aqueous One Solution Cell Proliferation Assay; conditions: RFL-6 cells; serial dilutions 200 to 7.8 mg/mL in SBF; read at 490 nm
Method: In vitro biocompatibility studies of PEG-di-DT hydrazide were assessed by analyzing cytotoxicity. […] The CellTiter96® Aqueous One Solution Cell Proliferation Assay (Promega, Madison, Wis.) was used to determine cytotoxicity. Plates were read on a PowerWavex absorbance plate reader, (Bio-Tek Instrumentation, Inc., Highland Park, Vt.).
Cell toxicity studies were carried out in 96-well plates made of tissue-cultured polystyrene, and ˜3×10^3 cells were seeded in each well. Serial dilutions of PEG-di-DT hydrazide were prepared in concentrations ranging from 200 mg/mL to 7.8 mg/mL using SBF as the diluent. Volume of media was kept constant to prevent nutritional advantages. Filter-sterilized dilutions (n=6) were plated in a 96 well plate and controls of media+cells+diluent (to account for affects of the diluent), and media+cells (optimal cell culture conditions) were employed. […] The plates were incubated for 2 hours and read at 490 nm on an absorbance plate reader. Data were analyzed using a two-tailed Student t-test, establishing statistical significance at p<0.05 when compared to cells grown in the cell+media+diluent control.

CCOC(=O)[C@H](Cc1ccc(O)cc1)NC(=O)CCc1ccc(O)cc1 [DTE, desaminotyrosyl-tyrosine ethyl ester]
time by which degradation product was undetectable by HPLC ([1]; degradation media of hydrogels, SBF, 37° C.): ≤ 12 weeks

O=C(CCc1ccc(O)cc1)N[C@@H](Cc1ccc(O)cc1)C(=O)O [DT, desaminotyrosyl-tyrosine free carboxylic acid]
presence of degradation product during degradation ([1]; HPLC, 6-month study): continued to remain during the course of degradation | cell migration ([2]; HAEC, 6 hours at 37° C.): Neither PEG 2000 nor DT solutions caused cell migration to occur

FGF-β: growth factor, known angiogenic substance used as positive control
dose dependence of cell migration ([2]; FIG. 7 / FIG. 8): dose dependent manner | minimum effective concentration (cell migration) ([2]; HAEC, 6 hours, FIG. 6): 0.01 µg/mL | cell migration response versus media alone ([2]; all concentrations tested): higher cell migration response than the media alone

CC(O)C(=O)[O-].[Na+] (stereo not shown) [Sodium Lactate, sodium lactate]
Results of the Cytotoxicity Assay [3]: 3 mg/mL
